{"source": "patent US20090326441A1", "about": "“Ultrasonic Enhanced Microneedles” (AGENCY FOR SCIENCE ,TECHNOLOGY AND RESEARCH, priority 2006, published 2009)", "assay": "Penetration of calcein through pig skin in Franz cell test device", "type": "in vitro ADME", "details": "calcein solution 1 mmol, 0.523 mg/ml, receiving liquid PBS, 37° C., FIG. 9", "method": "An injection device according to the present invention was constructed as described above. Testing was performed using calcein on pig skin, using the apparatus in FIG. 8. The graph of FIG. 9 presents the results of testing in three different situations: without enhancers, with hollow microneedles and using the method of the present invention, using microneedles with ultrasonic enhancement. With reference to FIG. 8, test device 10 comprises injection device 20 which has been applied to skin sample 30. Pig skin sample 30 communicates with a receiving liquid in receiving chamber 40. Arm 50 is provided to chamber 40 for inserting or withdrawing the receiving liquid. Chamber 40 is located in Franz cell 60, which comprises a water bath 65 and inlet and outlet ports 70 and 75 respectively for maintaining the receiving liquid at a constant temperature. Sample chamber 80 is provided for holding a test sample. […]\nIn order to conduct the test using test device 10, calcein solution (1 mmol, 0.523 mg/ml) was placed in chamber 80 so as to supply the solution to device 20, and a receiving liquid (PBS: phosphate buffered saline) was loaded into chamber 40. […] The concentration of calcein in the receiving liquid was then monitored by withdrawing aliquots from arm 50 and analysing them. […]", "data": [{"compound": "O=C(O)CN(CC(=O)O)Cc1cc2c(cc1O)Oc1cc(O)c(CN(CC(=O)O)CC(=O)O)cc1C21OC(=O)c2ccccc21", "note": "[calcein]", "values": [{"measurement": "transport of calcein across the skin sample", "setting": "microneedles and ultrasound (20 kHz, 0.5 Wcm^−2), compared with microneedles alone", "value": "enhanced"}, {"measurement": "transport of calcein across the skin sample", "setting": "microneedles, no ultrasound, compared with no microneedles (without enhancers)", "value": "improvement"}]}]}
